Data on 1 compound can be found in paper PMC4351081, “Lincosamide Synthetase—A Unique Condensation System Combining Elements of Nonribosomal Peptide Synthetase and Mycothiol Metabolism” (PLoS ONE, 2015).

This experiment deals with T1, LmbC (with holo-LmbN-CP) (Streptomyces lincolnensis, UniProt A9Y8R4).
T1 construct: gene SLINC_0236; LmbC: stand-alone NRPS adenylation domain, recombinant, produced as described previously; LmbN-CP: stand-alone N-terminal ~80-residue CP domain, C-terminal His-tag, E. coli BL21(DE3), phosphopantetheinylated by Slp (holo); with LmbN, N-terminal carrier protein domain (LmbN-CP)
T1 sequence (A9Y8R4 1-509): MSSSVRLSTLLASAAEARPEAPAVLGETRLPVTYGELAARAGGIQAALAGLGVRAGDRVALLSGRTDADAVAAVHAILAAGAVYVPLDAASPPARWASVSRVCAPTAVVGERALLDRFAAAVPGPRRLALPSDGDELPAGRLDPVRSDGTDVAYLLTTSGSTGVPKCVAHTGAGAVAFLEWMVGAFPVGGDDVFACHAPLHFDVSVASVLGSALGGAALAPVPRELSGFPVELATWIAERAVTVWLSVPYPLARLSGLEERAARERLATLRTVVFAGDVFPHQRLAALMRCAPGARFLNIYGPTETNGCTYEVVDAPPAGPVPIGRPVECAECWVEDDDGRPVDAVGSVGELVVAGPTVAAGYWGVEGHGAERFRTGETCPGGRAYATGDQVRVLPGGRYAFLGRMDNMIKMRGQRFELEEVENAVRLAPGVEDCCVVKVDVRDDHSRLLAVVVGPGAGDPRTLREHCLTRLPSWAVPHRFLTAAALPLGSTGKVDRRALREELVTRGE
T1 sequence (A9Y8S4 1-80 partner limits assumed): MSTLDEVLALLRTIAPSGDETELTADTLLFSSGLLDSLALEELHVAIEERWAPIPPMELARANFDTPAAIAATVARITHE
As to the kind of experiment: LC-MS (FT-ICR) of aminoacylated carrier protein. In kind it is biochemical. As to conditions: 3 mM PPL, 1.2 mM ATP, Mg2+, in vitro or in vivo phosphopantetheinylated LmbN-CP, 0.6 uM LmbC, pH 8.8, 28 C, 50 min; PPL transferred to holo-LmbN-CP (covalent).

Molecules are shown by their SMILES.

On to `CCCC1CN[C@H](C(=O)O)C1` (stereo partly drawn) [4-propyl-L-proline], for which the “LC-MS (FT-ICR) of aminoacylated carrier protein” value is reported as “A-domain LmbC together with LmbN-holo-CP activate the PPL precursor of lincomycin”.
